According to publication PMC11044151, “Development of Half-Sandwich Ru, Os, Rh, and Ir Complexes Bearing the Pyridine-2-ylmethanimine Bidentate Ligand Derived from 7-Chloroquinazolin-4(3H)-one with Enhanced Antiproliferative Activity” (ACS Omega, 2024):
Like-named read-outs stand apart in the source and are kept apart here.

Columns and labels:
SW620V = assay: Neutral red uptake antiproliferative assay, MDR line SW620V; format: cell-based, human; details: for IC50: exposure time 72 h, n = 3, ABCB1-overexpressing MDR line; for activity factor IC50(1)/IC50(3a–4d), SW620V: vs corresponding amine (R)-1 or (S)-1, 72 h
Text: (§1) Next, we evaluated the cytotoxicity of the synthesized complexes toward the panel of six multidrug-resistant (MDR) cell lines derived from SW620 and characterized by the overexpression of various ABC proteins, namely, ABCG2 (SW620C and SW620Mito), ABCC1 (SW620M and SW620E), and ABCB1 (SW620D, SW620E, and SW620V) (Table 3, Figures S29 and S32). […] The activity of the complexes derived from the ligand (S)-2 is also considerably higher than that of the compounds containing the ligand (R)-2. The cytotoxicity of both rhodium 4c and iridium 4d complexes is higher than that of amine (S)-1. In the case of 4c, the increase in cytotoxicity is low, with the highest value of 3.7-fold for the SW620Mito line. […] Compound 4d also exerts a 2.1- and 2.6-fold higher cytotoxicity than […] against the SW620C and SW620D lines.
(§2) For this purpose, neutral red uptake assay was performed. […] The results were presented as a percentage of control.

SW620E = assay: Neutral red uptake antiproliferative assay, MDR line SW620E; format: cell-based, human; details: for IC50: exposure time 72 h, n = 3, ABCC1- and ABCB1-overexpressing MDR line; for activity factor IC50(1)/IC50(3a–4d), SW620E: vs corresponding amine (R)-1 or (S)-1, 72 h
Text: as §1, §2

SW620D = assay: Neutral red uptake antiproliferative assay, MDR line SW620D; format: cell-based, human; details: for IC50: exposure time 72 h, n = 3, ABCB1-overexpressing MDR line; for activity factor IC50(1)/IC50(3a–4d), SW620D: vs corresponding amine (R)-1 or (S)-1, 72 h
Text: as §1, §2

SW620C = assay: Neutral red uptake antiproliferative assay, MDR line SW620C; format: cell-based, human; details: for IC50: exposure time 72 h, n = 3, ABCG2-overexpressing MDR line; for activity factor IC50(1)/IC50(3a–4d), SW620C: vs corresponding amine (R)-1 or (S)-1, 72 h
Text: as §1, §2

SW620M = assay: Neutral red uptake antiproliferative assay, MDR line SW620M; format: cell-based, human; details: for IC50: exposure time 72 h, n = 3, ABCC1-overexpressing MDR line; for activity factor IC50(1)/IC50(3a–4d), SW620M: vs corresponding amine (R)-1 or (S)-1, 72 h
Text: as §1, §2

SW620 cells = assay: Cell cycle distribution by flow cytometry, SW620; format: cell-based, human; details: concentration equal to IC75 of (S)-1 / (R)-1, mean ± SEM, n = 3; for Cell cycle fraction G1, 24 h / Cell cycle fraction G2/M, 24 h / Cell cycle fraction S, 24 h: SW620, 24 h; for Cell cycle fraction G1, 48 h / Cell cycle fraction G2/M, 48 h / Cell cycle fraction S, 48 h: SW620, 48 h
Experimental: Ispinesib leads to the formation of monopolar mitotic spindles and a blockade of chromosome segregation in cancer cells. Using flow cytometry, we assessed the cell cycle distribution in the SW620 and SW620E cells exposed to the studied compounds for 24 and 48 h. […] Both complexes, 3c and 3d, decrease the percentage of cells in the G1/G0 phase and increase the percentage in the S and G2/M phases. […] Furthermore, prolonged exposure to the compounds increases the percentage of cells in the G2/M phase, with the most intensive effect observed for 3c and 3d.
SW620 and SW620E cells lines (vulnerable and resistant variants, respectively) were seeded in 6-well plates at a density of 10^5 cells per well. […] After 24 h, the cells were trypsinized and fixed with ice-cold 70% v/v ethanol. The cells were stained with 75 μM propidium iodide with 50 Kunitz units of RNase A in PBS for 30 min at 37 °C. All samples were analyzed using a LSRII flow cytometer (Becton Dickinson) at a PE channel ([…]). Cell cycle phase distribution was determined using a built-in cell cycle module (Watson pragmatic algorithm) by FlowJo 7.6.1 software.

A549 = assay: Neutral red uptake antiproliferative assay, A549; details: for IC50: read-out: IC50 A549; for activity factor IC50(1)/IC50(3a–4d), A549: vs corresponding amine (R)-1 or (S)-1, 72 h
Text: (§3) To assess the impact of conjugating half-sandwich complexes with amines 1 via an imine-pyridine ligand on biological activity, we examined the antiproliferative potential of (R)- and (S)-1 and organometallic conjugates 3a–d and 4a–d in selected human cancer cell lines: alveolar basal epithelial cell adenocarcinoma (A549), colorectal adenocarcinomas (Colo205 and SW620), colorectal carcinoma (HCT116), hepatocellular carcinoma (HepG2), and breast adenocarcinoma (MCF7). The choice of cell lines was dictated by results of previously published clinical trials on ispinesib.[49],[50]
(§4) Cell lines used in this study were purchased from the American Type Culture Collection via LGC Standards. Human normal lung fibroblasts (MRC-5), alveolar basal epithelial cell adenocarcinoma (A549), colorectal adenocarcinoma (Colo205), hepatocellular carcinoma (HepG2), breast adenocarcinoma (MCF7), and colorectal adenocarcinoma (SW620) and its MDR variants[55] were cultured in standard conditions (37 °C, 5% CO2, 100% relative humidity) in high glucose DMEM medium supplemented with GlutaMax, HEPES (ThermoFisher Scientific) and 10% fetal bovine serum (EURx, Poland). All cell lines were tested for Mycoplasma contamination using a MycoProbe mycoplasma detection kit (R&D System).
(§5) For this purpose, neutral red uptake assay was performed. 10^4 of cells were seeded per well of a 96-well plate and left overnight to allow cells to attach to the surface. Then, the cells were exposed to a desired concentration of tested compounds. Stock solutions were prepared in DMSO and were used immediately after preparation. The final concentration of DMSO was constant and nontoxic (0.1% v/v). After 70 h of culture, neutral red was added to the final concentration of 1 mM. After 2 h of incubation with the dye, the medium was aspirated and cells were washed with ice-cold PBS. The dye was released using 100 μL of the solubilizer (1% acetic acid in 50% ethanol) on an orbital shaker (10 min). The absorbance at 540 nm was measured using an EnVision multilabel plate reader (PerkinElmer). […] The IC90 and IC50 parameters were calculated using GraphPad Prism v9 software using the five-parameter nonlinear logistic regression model.

SW620 = assay: Neutral red uptake antiproliferative assay, SW620; format: cell-based, human; details: for IC50: exposure time 72 h, n = 3, 95% CI given; for activity factor IC50(1)/IC50(3a–4d), SW620: vs corresponding amine (R)-1 or (S)-1, 72 h
Text: as §3, §4, §5

MCF7 = assay: cells; details: for IC50: read-out: IC50 MCF7; for activity factor IC50(1)/IC50(3a–4d), MCF7: vs corresponding amine (R)-1 or (S)-1, 72 h
Text: as §3, §4, §5

Colo205 = assay: cells; details: for IC50: read-out: IC50 Colo205; for activity factor IC50(1)/IC50(3a–4d), Colo205: vs corresponding amine (R)-1 or (S)-1, 72 h
Text: as §3, §4, §5

HepG2 = assay: cells; details: for IC50: read-out: IC50 HepG2; for activity factor IC50(1)/IC50(3a–4d), HepG2: vs corresponding amine (R)-1 or (S)-1, 72 h
Text: as §3, §4, §5

SW620Mito = assay: Neutral red uptake antiproliferative assay, MDR line SW620Mito; format: cell-based, human; details: for IC50: exposure time 72 h, n = 3, ABCG2-overexpressing MDR line; for activity factor IC50(1)/IC50(3a–4d), SW620Mito: vs corresponding amine (R)-1 or (S)-1, 72 h
Text: as §1, §2

HCT116 = assay: cells; details: for IC50: read-out: IC50 HCT116; for activity factor IC50(1)/IC50(3a–4d), HCT116: vs corresponding amine (R)-1 or (S)-1, 72 h
Text: as §3, §5

[1] = exposure time 72 h, n = 3, 95% CI given

Compound	Cell cycle fraction G1, 24 h (SW620 cells)	Cell cycle fraction G2/M, 24 h (SW620 cells)	Cell cycle fraction S, 24 h (SW620 cells)	Cell cycle fraction G1, 48 h (SW620 cells)	Cell cycle fraction G2/M, 48 h (SW620 cells)	Cell cycle fraction S, 48 h (SW620 cells)	IC50 (SW620V)	activity factor IC50(1)/IC50(3a–4d), SW620V (SW620V)	IC50 (SW620E)	activity factor IC50(1)/IC50(3a–4d), SW620E (SW620E)	IC50 (SW620D)	activity factor IC50(1)/IC50(3a–4d), SW620D (SW620D)	IC50 (SW620C)	activity factor IC50(1)/IC50(3a–4d), SW620C (SW620C)	IC50 (SW620M)	activity factor IC50(1)/IC50(3a–4d), SW620M (SW620M)	IC50 (A549; [1])	activity factor IC50(1)/IC50(3a–4d), A549 (A549)	IC50 (SW620)	activity factor IC50(1)/IC50(3a–4d), SW620 (SW620)	other results
CC(C)[C@H](N)c1nc2cc(Cl)ccc2c(=O)n1Cc1ccccc1 [(S)-1, reference compound]	41.8 ± 1.2%	37.1 ± 1.2%	19.5 ± 0.3%	35.2 ± 1.1%	42.5 ± 0.6%	19.9 ± 0.4%	–	–	–	–	–	–	–	–	–	–	–	–	–	–	IC50 (SW620V; Homo sapiens): 3.44 µM; IC50 (SW620E; Homo sapiens): 4.05 µM; IC50 (SW620D; Homo sapiens): 4.15 µM; IC50 (SW620C; Homo sapiens): 3.33 µM; IC50 (SW620M; Homo sapiens): 3.46 µM; IC50 (A549; Homo sapiens, A549, 72 h): 7.05 µM; IC50 (SW620; Homo sapiens, SW-620): 2.87 µM; IC50 (MCF7; Homo sapiens, MCF7, 72 h): 3.91 µM; IC50 (Colo205; Homo sapiens, COLO 205, 72 h): 6.07 µM; IC50 (HepG2; Homo sapiens, HepG2, 72 h): 2.4 µM; IC50 (SW620Mito; Homo sapiens): 3.91 µM; IC50 (HCT116; Homo sapiens, HCT-116, 72 h): 8.06 µM
CC(C)[C@H](N=Cc1ccccn1)c1nc2cc(Cl)ccc2c(=O)n1Cc1ccccc1.Cc1ccc(C(C)C)cc1.F[P-](F)(F)(F)(F)F.[Cl-].[Os+2] [Compound 4b, [(cym)Os((S)-2)Cl]PF6]	51.8 ± 0.2%	32.6 ± 0.3%	15.0 ± 0.5%	41.8 ± 0.4%	42.7 ± 0.6%	14.9 ± 0.4%	9.3 µM	(0.370)	12.8 µM	(0.316)	13.5 µM	(0.307)	4.54 µM	(0.738)	2.45 µM	(1.41)	2.19 µM	(3.22)	2.31 µM	(1.24)	increased cytotoxicity vs corresponding amine 1, MCF7 (MCF7): 9 fold; IC50 (MCF7; [1]): 0.438 µM; activity factor IC50(1)/IC50(3a–4d), MCF7 (MCF7): (8.93); increased cytotoxicity vs corresponding amine 1, Colo205 (Colo205): 7 fold; IC50 (Colo205; [1]): 0.904 µM; activity factor IC50(1)/IC50(3a–4d), Colo205 (Colo205): (6.71); IC50 (HepG2; [1]): 1.13 µM; activity factor IC50(1)/IC50(3a–4d), HepG2 (HepG2): (2.12); IC50 (SW620Mito): 3.78 µM; activity factor IC50(1)/IC50(3a–4d), SW620Mito (SW620Mito): (1.03); increased cytotoxicity vs corresponding amine 1, HCT116 (HCT116): 10 fold; IC50 (HCT116; [1]): 0.823 µM; activity factor IC50(1)/IC50(3a–4d), HCT116 (HCT116): (9.79)
CC(C)[C@H](N=Cc1ccccn1)c1nc2cc(Cl)ccc2c(=O)n1Cc1ccccc1.Cc1c(C)c(C)[c-](C)c1C.F[P-](F)(F)(F)(F)F.[Cl-].[Rh+3] [Compound 4c, [(Cp*)Rh((S)-2)Cl]PF6]	52.6 ± 1.9%	32.7 ± 2.0%	13.6 ± 0.3%	41.6 ± 1.0%	43.8 ± 1.4%	13.7 ± 0.4%	2.98 µM	(1.15)	6.2 µM	(0.653)	6.07 µM	(0.684)	2.97 µM	(1.12)	2.25 µM	(1.54)	3.79 µM	(1.86)	2.24 µM	(1.28)	IC50 (MCF7; [1]): 1.5 µM; activity factor IC50(1)/IC50(3a–4d), MCF7 (MCF7): (2.61); IC50 (Colo205; [1]): 2.89 µM; activity factor IC50(1)/IC50(3a–4d), Colo205 (Colo205): (2.10); IC50 (HepG2; [1]): 1.15 µM; activity factor IC50(1)/IC50(3a–4d), HepG2 (HepG2): (2.09); IC50 (SW620Mito): 1.05 µM; increase in cytotoxicity vs corresponding amine 1, SW620Mito (SW620Mito; rounded value): 3.7 fold; activity factor IC50(1)/IC50(3a–4d), SW620Mito (SW620Mito): (3.72); IC50 (HCT116; [1]): 2.94 µM; activity factor IC50(1)/IC50(3a–4d), HCT116 (HCT116): (2.74)
